Key:
[1] = target: T1, norepinephrine transporter (NET) (Homo sapiens, UniProt P23975); experiment: Fluorescent substrate uptake inhibition, NET; assay type: cell-based; details: for inhibition at 10 µM: HEK293 cells expressing NET
T1 construct: expressed in transfected cells; host or cells: HEK293

[2] = RLM stability (Low Activity); assay type: in vitro ADME, Sprague Dawley rats; details: male, Sprague Dawley, rat, liver microsomes, pH 7.4, Condition 1 (Low Activity), 0.50 mg protein/mL
Method in brief: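 Pooled male Sprague Dawley rat liver microsomes (0.50 mg/mL) in PBS pH 7.4 with 1 mM MgCl2 and 1 mM NADPH; compound 1 μM, 1.0% solvent, 37° C. Six time points over 60 min, parent remaining by LC-MS/MS; kel, t1/2 and Clint from linear regression of ln(AUC) versus time.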

[3] = target: T2, serotonin transporter (SERT) (Homo sapiens, UniProt P31645); experiment: Fluorescent substrate uptake inhibition, SERT; assay type: cell-based; details: for inhibition at 10 µM: HEK293 cells expressing SERT
T2 construct: expressed in transfected cells; host or cells: HEK293

[4] = HLM stability (Low Activity, Alternative Method); assay type: in vitro ADME; details: both sexes, human, liver microsomes, pH 7.4, Condition 1 column, values marked *: Low Activity, 0.50 mg protein/mL
Method in brief: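 Pooled male and female human liver microsomes (0.50 mg/mL) in 100 mM PBS pH 7.4 with 1 mM MgCl2 and 1 mM NADPH, compound 1 μM (1.0% solvent), 37° C with shaking, six time points over 60 min. Parent remaining measured by LC-MS/MS; kel, t1/2 and Clint from linear regression of ln(AUC) versus time.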

[5] = target: T3, DAT (Homo sapiens, UniProt Q01959); experiment: DAT radioligand binding with [3H]WIN35,428
T3 construct: expressed in transfected cells; host or cells: CHO (uptake)
Protocol: (§1) Radioligand Binding. Affinity of the test compounds for SERT, NET, and DAT was determined in radioligand binding experiments with [^3H]imipramine, [^3]nisoxetine, and [^3H]WIN35,428, respectively, by WuXi AppTec (Hong Kong) Limited, under the conditions described in Table 15.

[6] = MLM stability (Low Activity); assay type: in vitro ADME, CD-1 mice; details: male, CD-1, mouse, liver microsomes, pH 7.4, Condition 1 (Low Activity), 0.50 mg protein/mL
Method in brief: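 Pooled male CD-1 mouse liver microsomes (0.50 mg/mL) with 1 μM compound and 1 mM NADPH in 100 mM PBS pH 7.4 with 1 mM MgCl2, 37 °C, six time points over 60 min. Parent remaining by LC-MS/MS; kel, t1/2 and Clint from linear regression of ln(AUC) versus time.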

[7] = target: T4, vesicular monoamine transporter 2 (VMAT2) (Homo sapiens, UniProt Q05940); experiment: Fluorescent substrate uptake inhibition, VMAT2; assay type: cell-based; details: 10 μM, transfected cells
T4 construct: expressed in transfected cells

[8] = target: MK-801 binding site of the N-methyl-D-aspartate receptor (NMDAR); experiment: NMDAR radioligand binding with [3H]MK-801, Method B; parameters: species or system Sprague Dawley rat; details: MK-801 site, Method B, male Sprague Dawley rat cortex, 5.0 nM [3H]MK-801; read-out: NMDAR Ki ± SEM
Protocol: Radioligand Binding—Method B. Affinity of the test compounds for NMDAR was determined in radioligand binding experiments with [^3H]MK-801 by WuXi AppTec (Hong Kong) Limited, under the conditions described in Table 13.

[9] = target: T5, NET (Homo sapiens, UniProt P23975); experiment: NET radioligand binding with [3H]nisoxetine
T5 construct: expressed in transfected cells; host or cells: HEK293
Protocol: as §1

[10] = target: T6, dopamine transporter (DAT) (Homo sapiens, UniProt Q01959); experiment: Fluorescent substrate uptake inhibition, DAT; assay type: cell-based; details: for inhibition at 10 µM: CHO cells expressing DAT; for inhibitory activity at DAT: in words
T6 construct: expressed in transfected cells; host or cells: CHO (uptake)

[11] = target: T7, SERT (Homo sapiens, UniProt P31645); experiment: SERT radioligand binding with [3H]imipramine
T7 construct: expressed in transfected cells; host or cells: HEK293
Protocol: as §1

[12] = HLM stability (High Activity); assay type: in vitro ADME; details: both sexes, human, liver microsomes, pH 7.4, Condition 2 (High Activity), 1.0 mg protein/mL
Protocol: (§2) HLM Stability (High Activity). Pooled HLM from adult male and female donors (XenoTech H0630) were used. Microsomal incubations were carried out in 96-well plates in 5 aliquots of 40 μL, each (one for each time point). Liver microsomal incubation medium consisted of PBS (100 mM, pH 7.4), MgCl2 (3.3 mM), NADPH (3 mM), glucose-6-phosphate (5.3 mM), and glucose-6-phosphate dehydrogenase (0.67 units/mL), with 1.0 mg of liver microsomal protein per mL. Control incubations were performed by replacing the NADPH-cofactor system with PBS. Test compounds (1 μM, final solvent concentration 1.6%) were incubated with microsomes at 37° C., shaking at 100 rpm. Incubations were performed in duplicate. Five time points over 60 minutes were analyzed. The reactions were stopped by adding 12 volumes of 90% acetonitrile-water to incubation aliquots, followed by protein sedimentation by centrifugation at 5500 rpm for 3 minutes. Supernatants were analyzed for parent compound remaining using a fit-for-purpose liquid chromatography-tandem mass spectrometry (LC-MS/MS) method, with authentic samples of each analyte used for identity confirmation.
(§3) Data Analysis. The elimination constant (kel), half-life (t1/2) and intrinsic clearance (Clint) were determined in a plot of […] versus time, using linear regression analysis.

[13] = MLM stability (High Activity); assay type: in vitro ADME, BALB/c mice; details: male, BALB/c, mouse, liver microsomes, pH 7.4, Condition 2 (High Activity), 1.0 mg protein/mL
Protocol: as §2, with “MLM” for “HLM”, “from” for “from adult”, “BALB/c mice” for “and female donors”, “M3000)” for “H0630)”, “μL” for “μL,”, “9” for “12”
as §3

T6 sequence (Q01959 whole entry, species assumed): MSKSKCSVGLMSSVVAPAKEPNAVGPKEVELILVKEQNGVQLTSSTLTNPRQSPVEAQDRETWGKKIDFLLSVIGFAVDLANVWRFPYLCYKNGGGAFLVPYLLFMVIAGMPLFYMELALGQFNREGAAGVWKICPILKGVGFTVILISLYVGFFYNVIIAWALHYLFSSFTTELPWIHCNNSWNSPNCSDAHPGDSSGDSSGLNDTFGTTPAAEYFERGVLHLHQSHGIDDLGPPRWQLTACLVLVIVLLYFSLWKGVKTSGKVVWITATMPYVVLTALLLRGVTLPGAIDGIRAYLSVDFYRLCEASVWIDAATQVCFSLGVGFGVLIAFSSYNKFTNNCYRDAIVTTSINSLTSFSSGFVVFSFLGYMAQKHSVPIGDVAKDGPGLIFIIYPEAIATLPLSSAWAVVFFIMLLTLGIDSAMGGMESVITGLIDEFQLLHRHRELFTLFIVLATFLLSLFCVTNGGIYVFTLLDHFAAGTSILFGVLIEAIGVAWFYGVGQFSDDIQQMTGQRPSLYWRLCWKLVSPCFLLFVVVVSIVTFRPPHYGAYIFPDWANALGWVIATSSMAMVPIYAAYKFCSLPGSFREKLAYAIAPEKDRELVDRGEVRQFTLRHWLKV
T3 sequence (Q01959 whole entry, species assumed): as above
T4 sequence (Q05940 whole entry, species assumed): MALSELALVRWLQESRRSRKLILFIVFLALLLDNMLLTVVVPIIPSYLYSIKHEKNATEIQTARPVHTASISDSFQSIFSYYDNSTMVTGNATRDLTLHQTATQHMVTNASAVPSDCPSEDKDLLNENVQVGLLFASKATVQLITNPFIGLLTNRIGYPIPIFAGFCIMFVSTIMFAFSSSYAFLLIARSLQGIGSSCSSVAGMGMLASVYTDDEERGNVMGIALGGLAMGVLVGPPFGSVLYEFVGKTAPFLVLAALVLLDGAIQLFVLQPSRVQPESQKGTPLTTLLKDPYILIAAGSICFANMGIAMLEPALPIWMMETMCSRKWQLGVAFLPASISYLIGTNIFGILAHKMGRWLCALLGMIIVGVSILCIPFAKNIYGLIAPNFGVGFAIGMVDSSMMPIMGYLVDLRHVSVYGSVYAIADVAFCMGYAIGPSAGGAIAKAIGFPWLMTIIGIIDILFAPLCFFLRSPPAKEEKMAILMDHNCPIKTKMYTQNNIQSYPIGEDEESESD
T5 sequence (P23975 whole entry, species assumed): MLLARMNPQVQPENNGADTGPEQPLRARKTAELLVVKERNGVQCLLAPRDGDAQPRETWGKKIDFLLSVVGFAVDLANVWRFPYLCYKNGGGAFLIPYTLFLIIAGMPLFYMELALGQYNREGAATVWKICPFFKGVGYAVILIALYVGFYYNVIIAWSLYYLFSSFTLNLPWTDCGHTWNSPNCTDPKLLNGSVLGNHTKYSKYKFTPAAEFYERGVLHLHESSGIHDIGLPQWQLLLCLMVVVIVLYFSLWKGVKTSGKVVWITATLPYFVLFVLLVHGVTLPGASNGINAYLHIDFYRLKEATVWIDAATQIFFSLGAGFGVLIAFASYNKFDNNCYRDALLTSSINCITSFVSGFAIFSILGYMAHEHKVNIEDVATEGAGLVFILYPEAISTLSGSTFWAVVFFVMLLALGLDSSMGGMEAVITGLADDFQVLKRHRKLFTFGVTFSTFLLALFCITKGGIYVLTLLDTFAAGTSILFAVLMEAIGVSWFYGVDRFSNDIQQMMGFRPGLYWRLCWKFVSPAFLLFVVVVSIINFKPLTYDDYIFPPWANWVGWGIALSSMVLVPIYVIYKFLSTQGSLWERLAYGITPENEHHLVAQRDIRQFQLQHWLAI
T1 sequence (P23975 whole entry, species assumed): as above
T2 sequence (P31645 whole entry, species assumed): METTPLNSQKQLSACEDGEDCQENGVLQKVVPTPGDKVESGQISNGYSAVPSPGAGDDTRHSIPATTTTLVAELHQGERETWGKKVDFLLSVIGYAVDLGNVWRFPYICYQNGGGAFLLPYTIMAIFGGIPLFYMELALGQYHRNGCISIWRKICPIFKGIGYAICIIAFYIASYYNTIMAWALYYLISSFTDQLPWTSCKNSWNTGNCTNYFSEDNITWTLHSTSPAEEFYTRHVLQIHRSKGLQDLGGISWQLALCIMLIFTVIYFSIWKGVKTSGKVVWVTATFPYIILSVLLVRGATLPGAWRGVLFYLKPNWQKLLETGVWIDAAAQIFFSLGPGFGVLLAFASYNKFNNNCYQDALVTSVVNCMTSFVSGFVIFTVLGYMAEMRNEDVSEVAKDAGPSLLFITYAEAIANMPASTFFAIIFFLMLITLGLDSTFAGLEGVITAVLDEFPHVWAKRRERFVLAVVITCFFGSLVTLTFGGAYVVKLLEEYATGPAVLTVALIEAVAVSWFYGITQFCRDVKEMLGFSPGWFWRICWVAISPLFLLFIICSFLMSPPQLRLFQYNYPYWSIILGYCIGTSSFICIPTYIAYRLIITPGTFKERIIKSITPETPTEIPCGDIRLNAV
T7 sequence (P31645 whole entry, species assumed): as above

Structure (SMILES) | IC50 [1] [µM] | inhibition at 10 µM [1] [%] | IC50 [3] [µM] | inhibition at 10 µM [3] [%] | Ki [5] [µM] | inhibition at 10 µM [7] [%] | Ki [8] [µM] | Ki [9] [µM] | IC50 [10] [µM] | inhibition at 10 µM [10] [%] | inhibitory activity at DAT [10] | Ki [11] [µM] | half-life at 1 μM [12] [min] | microsomal CLint at 1 μM [12] [µL/min/mg] | half-life at 1 μM [13] [min] | microsomal CLint at 1 μM [13] [µL/min/mg] | other results
CC(C)N[C@]1(c2ccccc2)CCCCC1=O [Compound 28S, (S)-2-(isopropylamino)-2-phenylcyclohexan-1-one] | 4.7 | 48.7 | 8.5 | 22 | 6 | -32.7 | 3 | 13.5 | 1.3 | 58 | significant inhibitory activity at DAT | 12.3 |  |  |  |  | half-life at 1 μM [2]: 18.9 min; microsomal CLint at 1 μM [2]: 73.4 µL/min/mg; half-life at 1 μM [4]: 76.6 min; microsomal CLint at 1 μM [4]: 18.1 µL/min/mg; half-life at 1 μM [6]: 14.8 min; microsomal CLint at 1 μM [6]: 94 µL/min/mg
O=C1CCCC[C@]1(c1ccccc1)N1CCCCC1 [Compound 26R, (R)-2-phenyl-2-(piperidin-1-yl)cyclohexan-1-one] | 23.7 | 19.5 | > 100 | 30.4 | 70.4 | -12.3 | 3.7 | > 87.4 | 5 | 58 | significant inhibitory activity at DAT | 22.5 | 63.2 | 11 | 10.6 | 65 | 
O=C1CCCC[C@@]1(c1ccccc1)N1CCCCC1 [Compound 26S, (S)-2-phenyl-2-(piperidin-1-yl)cyclohexan-1-one] | 8.9 | 16.1 | 44 | 43 | 79.5 | 22.9 | 0.52 | > 87.4 | 16.4 | 33.7 |  | 8.2 | 101 | 7 | 12.3 | 56 | 
